According to ChEMBL document CHEMBL5291721, “A preclinical secondary pharmacology resource illuminates target-adverse drug reaction associations of marketed drugs” (Nat Commun, 2023):

How the values were obtained:
[1] = molecular target: T1, Neuropeptide Y receptor type 1 (Homo sapiens, UniProt P25929)
T1 sequence (P25929 whole entry): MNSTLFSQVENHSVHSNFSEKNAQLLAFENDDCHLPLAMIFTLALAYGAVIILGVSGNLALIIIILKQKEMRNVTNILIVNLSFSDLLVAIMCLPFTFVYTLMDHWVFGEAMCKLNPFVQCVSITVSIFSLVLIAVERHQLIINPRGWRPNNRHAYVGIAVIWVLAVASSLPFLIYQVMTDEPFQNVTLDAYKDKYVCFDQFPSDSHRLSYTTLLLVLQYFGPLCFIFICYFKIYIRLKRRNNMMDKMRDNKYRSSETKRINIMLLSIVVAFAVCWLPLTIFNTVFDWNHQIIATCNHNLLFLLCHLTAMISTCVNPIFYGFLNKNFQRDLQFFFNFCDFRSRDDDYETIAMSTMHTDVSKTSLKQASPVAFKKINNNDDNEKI

Mu-type opioid receptor = Mu-type opioid receptor (Homo sapiens, UniProt P35372)
[2] = molecular target: Gamma-aminobutyric acid receptor subunit alpha-1 (Rattus norvegicus, UniProt P62813)
[3] = molecular target: Delta-type opioid receptor (Homo sapiens, UniProt P41143)
[4] = molecular target: T2, Alpha-1A adrenergic receptor (Homo sapiens, UniProt P35348); assay type: functional, cell-based
T2 sequence (P35348 whole entry): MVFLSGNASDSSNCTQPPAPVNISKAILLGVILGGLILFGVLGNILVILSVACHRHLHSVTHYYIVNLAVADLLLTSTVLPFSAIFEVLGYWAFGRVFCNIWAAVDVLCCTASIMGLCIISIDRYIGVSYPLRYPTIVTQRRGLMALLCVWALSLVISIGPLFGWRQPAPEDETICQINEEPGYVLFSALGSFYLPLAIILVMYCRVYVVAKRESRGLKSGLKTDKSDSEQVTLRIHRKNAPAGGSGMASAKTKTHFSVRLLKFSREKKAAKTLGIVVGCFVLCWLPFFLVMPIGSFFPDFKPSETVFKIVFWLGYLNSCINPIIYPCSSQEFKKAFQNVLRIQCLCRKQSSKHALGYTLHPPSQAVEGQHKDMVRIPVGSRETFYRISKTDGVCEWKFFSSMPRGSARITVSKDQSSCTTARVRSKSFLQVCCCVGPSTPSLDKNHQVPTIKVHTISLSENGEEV

[5] = molecular target: T3, Amine oxidase [flavin-containing] A (Homo sapiens, UniProt P21397); assay type: functional
T3 sequence (P21397 whole entry): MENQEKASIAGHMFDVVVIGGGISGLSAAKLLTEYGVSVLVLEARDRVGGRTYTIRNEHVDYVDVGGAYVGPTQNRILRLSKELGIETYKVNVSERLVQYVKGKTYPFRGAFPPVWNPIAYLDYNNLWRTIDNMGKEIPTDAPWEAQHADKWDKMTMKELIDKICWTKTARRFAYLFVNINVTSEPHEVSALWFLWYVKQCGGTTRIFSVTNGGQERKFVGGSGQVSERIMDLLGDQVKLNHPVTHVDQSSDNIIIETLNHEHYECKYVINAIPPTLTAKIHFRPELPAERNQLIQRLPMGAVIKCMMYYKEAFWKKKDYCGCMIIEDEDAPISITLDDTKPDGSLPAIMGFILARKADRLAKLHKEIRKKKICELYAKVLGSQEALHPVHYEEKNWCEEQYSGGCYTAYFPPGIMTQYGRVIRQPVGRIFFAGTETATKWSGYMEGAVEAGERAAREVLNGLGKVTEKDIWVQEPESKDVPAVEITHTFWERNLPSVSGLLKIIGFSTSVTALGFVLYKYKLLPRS

[6] = molecular target: T4, 5-hydroxytryptamine receptor 1A (Homo sapiens, UniProt P08908); assay type: functional, cell-based
T4 sequence (P08908 whole entry): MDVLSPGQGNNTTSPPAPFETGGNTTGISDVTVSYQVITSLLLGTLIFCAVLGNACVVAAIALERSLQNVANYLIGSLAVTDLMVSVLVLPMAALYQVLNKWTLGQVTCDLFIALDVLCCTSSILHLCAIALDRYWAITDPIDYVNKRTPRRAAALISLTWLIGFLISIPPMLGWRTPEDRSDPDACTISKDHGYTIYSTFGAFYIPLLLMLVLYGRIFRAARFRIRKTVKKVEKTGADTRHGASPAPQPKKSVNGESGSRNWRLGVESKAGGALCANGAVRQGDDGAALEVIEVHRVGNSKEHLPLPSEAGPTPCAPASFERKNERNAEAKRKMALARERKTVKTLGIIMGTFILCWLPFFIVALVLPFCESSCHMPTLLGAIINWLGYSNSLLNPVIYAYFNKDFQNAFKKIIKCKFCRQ

[7] = molecular target: Beta-2 adrenergic receptor (Homo sapiens, UniProt P07550)
D(3) dopamine receptor = D(3) dopamine receptor (Homo sapiens, UniProt P35462)
[8] = molecular target: T5, Alpha-2C adrenergic receptor (Homo sapiens, UniProt P18825); assay type: functional
T5 sequence (P18825 whole entry): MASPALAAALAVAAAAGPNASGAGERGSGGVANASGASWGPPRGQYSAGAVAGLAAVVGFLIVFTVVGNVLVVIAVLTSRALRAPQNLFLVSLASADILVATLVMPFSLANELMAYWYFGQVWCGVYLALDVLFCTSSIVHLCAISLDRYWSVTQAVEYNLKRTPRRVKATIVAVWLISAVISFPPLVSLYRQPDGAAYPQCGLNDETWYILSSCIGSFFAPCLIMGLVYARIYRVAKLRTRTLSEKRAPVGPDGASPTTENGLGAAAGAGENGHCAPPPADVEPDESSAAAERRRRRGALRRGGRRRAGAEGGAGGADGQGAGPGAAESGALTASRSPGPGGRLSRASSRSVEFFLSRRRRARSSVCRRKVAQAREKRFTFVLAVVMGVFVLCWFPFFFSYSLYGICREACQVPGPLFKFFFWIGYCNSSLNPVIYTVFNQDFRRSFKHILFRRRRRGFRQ

[9] = molecular target: Kappa-type opioid receptor (Homo sapiens, UniProt P41145)
Also: assay procedure not described here.

Sequence of Gamma-aminobutyric acid receptor subunit alpha-1 (P62813 whole entry): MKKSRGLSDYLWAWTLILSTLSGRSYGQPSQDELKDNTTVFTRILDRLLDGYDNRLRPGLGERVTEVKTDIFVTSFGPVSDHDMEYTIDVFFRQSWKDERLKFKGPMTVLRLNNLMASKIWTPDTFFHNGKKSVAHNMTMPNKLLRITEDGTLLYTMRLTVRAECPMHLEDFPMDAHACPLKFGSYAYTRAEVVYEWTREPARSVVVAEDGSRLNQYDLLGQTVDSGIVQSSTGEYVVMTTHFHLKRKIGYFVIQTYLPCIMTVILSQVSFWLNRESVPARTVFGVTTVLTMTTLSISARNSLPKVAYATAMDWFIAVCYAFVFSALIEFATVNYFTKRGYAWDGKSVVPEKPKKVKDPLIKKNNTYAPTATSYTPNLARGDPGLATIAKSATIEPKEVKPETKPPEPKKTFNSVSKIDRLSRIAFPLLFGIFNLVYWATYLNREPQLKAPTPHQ
Sequence of Delta-type opioid receptor (P41143 whole entry): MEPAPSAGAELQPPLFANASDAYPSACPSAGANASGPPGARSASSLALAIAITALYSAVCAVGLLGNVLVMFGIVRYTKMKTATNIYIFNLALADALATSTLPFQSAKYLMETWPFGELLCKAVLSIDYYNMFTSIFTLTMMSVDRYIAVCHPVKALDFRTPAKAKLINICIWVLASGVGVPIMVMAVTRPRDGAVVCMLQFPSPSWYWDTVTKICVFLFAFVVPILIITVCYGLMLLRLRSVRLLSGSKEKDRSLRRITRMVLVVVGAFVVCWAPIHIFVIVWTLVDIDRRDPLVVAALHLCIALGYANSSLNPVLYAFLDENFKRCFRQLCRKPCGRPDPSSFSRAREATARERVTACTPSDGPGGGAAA
Sequence of Kappa-type opioid receptor (P41145 whole entry): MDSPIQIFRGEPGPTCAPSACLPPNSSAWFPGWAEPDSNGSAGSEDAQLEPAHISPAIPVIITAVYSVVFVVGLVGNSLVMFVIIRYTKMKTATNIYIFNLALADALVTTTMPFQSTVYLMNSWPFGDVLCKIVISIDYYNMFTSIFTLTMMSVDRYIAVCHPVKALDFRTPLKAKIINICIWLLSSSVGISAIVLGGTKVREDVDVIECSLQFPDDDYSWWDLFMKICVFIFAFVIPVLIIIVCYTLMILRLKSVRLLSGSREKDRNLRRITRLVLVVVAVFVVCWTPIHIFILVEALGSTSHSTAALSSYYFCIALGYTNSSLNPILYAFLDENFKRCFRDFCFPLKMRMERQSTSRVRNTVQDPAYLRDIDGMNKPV
Sequence of Mu-type opioid receptor (P35372 whole entry): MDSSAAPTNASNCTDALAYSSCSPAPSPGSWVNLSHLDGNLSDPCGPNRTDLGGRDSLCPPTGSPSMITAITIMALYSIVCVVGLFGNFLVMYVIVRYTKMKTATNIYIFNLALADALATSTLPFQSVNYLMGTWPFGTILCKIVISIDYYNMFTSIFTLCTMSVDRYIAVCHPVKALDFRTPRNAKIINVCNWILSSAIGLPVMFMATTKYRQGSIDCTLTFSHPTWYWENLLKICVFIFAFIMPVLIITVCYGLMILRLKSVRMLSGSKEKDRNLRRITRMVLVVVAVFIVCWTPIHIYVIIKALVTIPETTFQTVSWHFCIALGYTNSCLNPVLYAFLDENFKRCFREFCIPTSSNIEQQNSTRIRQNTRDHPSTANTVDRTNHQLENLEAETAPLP
Sequence of D(3) dopamine receptor (P35462 whole entry): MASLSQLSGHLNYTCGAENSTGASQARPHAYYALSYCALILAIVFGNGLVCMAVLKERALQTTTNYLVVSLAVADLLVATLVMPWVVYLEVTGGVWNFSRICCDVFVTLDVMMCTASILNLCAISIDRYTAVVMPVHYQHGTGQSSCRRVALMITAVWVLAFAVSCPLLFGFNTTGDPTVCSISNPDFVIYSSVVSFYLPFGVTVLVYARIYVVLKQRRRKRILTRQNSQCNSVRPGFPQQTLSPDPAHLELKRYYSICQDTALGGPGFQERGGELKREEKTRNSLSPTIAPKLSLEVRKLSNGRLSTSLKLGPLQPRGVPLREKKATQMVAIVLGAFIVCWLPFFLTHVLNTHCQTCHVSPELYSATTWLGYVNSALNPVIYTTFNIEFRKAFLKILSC

Compound	AC50 [1]	AC50 (Mu-type opioid receptor)	AC50 [2]	AC50 [3]	AC50 [4]	AC50 [5]	AC50 [6]	AC50 [7]	AC50 (D(3) dopamine receptor)	AC50 [8]	AC50 [9]
CCN(CC)CCCN(c1ccccc1)C1Cc2ccccc2C1 [APRINDINE]	> 30 µM	19 µM	> 30 µM	> 30 µM	> 30 µM	> 30 µM	> 10 µM	> 10 µM	3.15 µM	7.9 µM	0.795 µM
N=C(N)NC(=O)Cc1c(Cl)cccc1Cl [GUANFACINE]	> 30 µM	> 30 µM	> 30 µM	> 30 µM	0.0245 µM	6.88 µM	> 30 µM	> 10 µM	20 µM	–	5.95 µM
CN1C(=O)CN=C(c2ccccc2F)c2cc([N+](=O)[O-])ccc21 [FLUNITRAZEPAM]	> 30 µM	> 10 µM	> 10 µM	> 10 µM	> 30 µM	> 10 µM	> 10 µM	> 10 µM	> 30 µM	> 10 µM	6.39 µM
CN1CCC(=C2c3ccccc3CC(=O)c3sccc32)CC1 [KETOTIFEN]	> 10 µM	> 30 µM	> 10 µM	> 30 µM	> 30 µM	> 10 µM	> 10 µM	> 10 µM	3 µM	6.45 µM	5.38 µM
Oc1cc(O)c2c(c1)O[C@H](c1ccc(O)c(O)c1)[C@@H](O)C2 [CIANIDANOL]	> 30 µM	> 30 µM	> 10 µM	> 30 µM	> 30 µM	> 10 µM	> 10 µM	> 10 µM	> 30 µM	> 10 µM	> 10 µM
O=C1CN=C(c2ccccc2Cl)c2cc([N+](=O)[O-])ccc2N1 [CLONAZEPAM]	> 30 µM	> 30 µM	> 10 µM	> 30 µM	> 30 µM	> 10 µM	> 10 µM	> 10 µM	> 10 µM	> 10 µM	> 10 µM
CCOC(=O)C1=C(C)NC(C)=C(C(=O)OC)C1c1cccc(Cl)c1Cl (centres undefined) [FELODIPINE]	> 30 µM	> 10 µM	> 10 µM	> 10 µM	> 30 µM	> 10 µM	> 10 µM	> 10 µM	–	> 10 µM	8.88 µM
TEPRENONE	–	> 30 µM	> 10 µM	> 30 µM	> 30 µM	> 10 µM	> 30 µM	> 30 µM	> 30 µM	> 10 µM	17 µM
CCOC(=O)O[C@]1(C(=O)COC(=O)CC)CC[C@H]2[C@@H]3CCC4=CC(=O)C=C[C@]4(C)[C@H]3[C@@H](O)C[C@@]21C [PREDNICARBATE]	> 10 µM	> 30 µM	> 10 µM	> 30 µM	–	> 10 µM	> 10 µM	> 10 µM	> 30 µM	> 10 µM	> 10 µM
Cc1cccc(Nc2ccncc2S(=O)(=O)NC(=O)NC(C)C)c1 [TORSEMIDE]	> 30 µM	> 30 µM	> 10 µM	> 30 µM	–	> 10 µM	> 10 µM	> 10 µM	> 30 µM	> 10 µM	> 10 µM
CN(C)CCOC(=O)C(c1ccccc1)C1(O)CCCC1 (centres undefined) [CYCLOPENTOLATE]	> 10 µM	> 30 µM	> 10 µM	> 30 µM	–	> 30 µM	> 10 µM	> 10 µM	> 30 µM	> 30 µM	> 10 µM
CCN(C(C)=O)c1cccc(-c2ccnc3c(C#N)cnn23)c1 [ZALEPLON]	> 30 µM	> 30 µM	–	> 30 µM	> 30 µM	> 10 µM	> 10 µM	> 30 µM	> 30 µM	> 10 µM	> 10 µM
CCC(NC(C)C)C(O)c1ccc(O)c(O)c1 (centres undefined) [ISOETHARINE]	> 30 µM	> 30 µM	> 30 µM	> 30 µM	–	> 30 µM	> 30 µM	5.43 µM	> 30 µM	> 30 µM	8.95 µM
CC(NC(C)(C)C)C(=O)c1cccc(Cl)c1 (centres undefined) [BUPROPION]	> 30 µM	> 10 µM	–	> 10 µM	> 30 µM	> 10 µM	> 10 µM	> 10 µM	> 10 µM	> 10 µM	–
Nc1ccc(S(=O)(=O)Nc2ncccn2)cc1 [SULFADIAZINE]	> 10 µM	> 30 µM	> 10 µM	> 30 µM	–	> 10 µM	> 10 µM	> 10 µM	> 30 µM	> 10 µM	> 10 µM
CCC(=O)[C@@]1(C)[C@H](C)C[C@H]2[C@@H]3CCC4=CC(=O)C=C[C@]4(C)[C@H]3[C@@H](O)C[C@@]21C [RIMEXOLONE]	> 10 µM	> 30 µM	> 10 µM	> 30 µM	–	> 10 µM	> 10 µM	> 10 µM	> 30 µM	> 10 µM	> 10 µM
CC(=O)OCC1=C(C(=O)O)N2C(=O)[C@@H](NC(=O)CSc3ccncc3)[C@H]2SC1 [CEPHAPIRIN]	> 10 µM	> 30 µM	> 10 µM	> 30 µM	–	> 10 µM	> 10 µM	> 10 µM	> 30 µM	> 10 µM	> 10 µM
Nc1nc(Cl)nc2c1ncn2[C@@H]1O[C@H](CO)[C@@H](O)[C@@H]1F [CLOFARABINE]	> 30 µM	> 30 µM	> 10 µM	> 30 µM	–	> 30 µM	> 30 µM	> 30 µM	> 30 µM	> 30 µM	> 10 µM
